Values of other authors as cited in patent US20090148430A1, “HUMAN OBESITY SUSCEPTIBILTY GENE ENCODING POTASSIUM ION CHANNELS AND USES THEREOF” (priority 2004, published 2009).

Tests used:
Kv channel [1] = conditions: extracellular application, MASMC and intestinal epithelial cells, rats
Kv1.5 = Kv1.5 (Rattus norvegicus, UniProt P19024); conditions: independent of effects on PTK activity
pig Kv1.5 = conditions: expressed in Xenopus oocytes; read-out: IC(50) block of pig Kv1.5
[2] = biological target: T1, cloned rat brain potassium channel Kv1.1 (Rattus norvegicus, UniProt P10499); conditions: Kv1.1, Xenopus laevis oocytes
T1 construct: host or cells: Xenopus laevis oocytes
T1 sequence (P10499 whole entry): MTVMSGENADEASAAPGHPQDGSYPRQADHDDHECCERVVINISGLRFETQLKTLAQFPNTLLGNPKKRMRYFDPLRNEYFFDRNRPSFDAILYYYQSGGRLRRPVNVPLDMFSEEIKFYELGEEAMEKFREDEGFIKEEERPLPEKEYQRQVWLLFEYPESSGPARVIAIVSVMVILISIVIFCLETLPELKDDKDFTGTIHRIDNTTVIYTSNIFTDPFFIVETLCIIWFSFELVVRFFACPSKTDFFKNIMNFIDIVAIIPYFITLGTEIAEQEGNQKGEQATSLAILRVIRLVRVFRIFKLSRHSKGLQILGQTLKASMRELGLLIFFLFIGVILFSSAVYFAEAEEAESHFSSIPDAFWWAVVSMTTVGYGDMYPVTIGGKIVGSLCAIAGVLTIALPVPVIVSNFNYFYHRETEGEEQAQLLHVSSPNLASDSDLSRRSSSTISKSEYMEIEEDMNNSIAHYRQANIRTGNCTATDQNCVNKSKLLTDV

Kv channel [3] = conditions: vascular smooth muscle cells
[4] = system: KV currents including Kv1.1; conditions: mammalian neurons, therapeutic levels
[5] = intranasal, healthy controls
[6] = massively obese child with leptin deficiency mutation

Sequence of Kv1.5 (P19024 whole entry): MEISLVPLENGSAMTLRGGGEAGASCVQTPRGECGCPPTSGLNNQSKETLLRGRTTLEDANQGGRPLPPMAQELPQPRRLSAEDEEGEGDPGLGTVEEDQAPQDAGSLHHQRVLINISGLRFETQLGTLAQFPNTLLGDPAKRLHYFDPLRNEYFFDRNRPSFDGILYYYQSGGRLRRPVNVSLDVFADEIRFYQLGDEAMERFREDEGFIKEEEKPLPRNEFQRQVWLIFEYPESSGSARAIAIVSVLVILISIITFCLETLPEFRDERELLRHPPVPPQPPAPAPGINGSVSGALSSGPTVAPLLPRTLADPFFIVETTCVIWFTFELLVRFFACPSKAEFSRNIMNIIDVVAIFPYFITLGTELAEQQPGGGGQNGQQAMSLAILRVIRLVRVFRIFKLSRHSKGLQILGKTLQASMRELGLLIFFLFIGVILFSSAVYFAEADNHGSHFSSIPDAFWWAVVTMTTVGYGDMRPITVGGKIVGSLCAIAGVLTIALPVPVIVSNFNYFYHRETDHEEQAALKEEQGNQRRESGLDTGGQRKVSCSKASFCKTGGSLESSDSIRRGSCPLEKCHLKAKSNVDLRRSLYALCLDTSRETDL

Molecule: Nc1ccncc1 [4-aminopyridine]
- effect of K+ channel blockade (Kv channel [1]): anorexic effect

Molecule: COc1cc2ncnc(Nc3cccc(Cl)c3)c2cc1OC [AG-1478]
- action on Kv1.5 currents (Kv1.5): open-channel blocker

Molecule: COc1ccc(CC(=O)NCc2ccccc2-c2ccccc2C(=O)NCCc2cccnc2)cc1 [AVE0118]
- IC50 (pig Kv1.5): 5.4 µM

Molecule: C1CCc2nnnn2CC1 [PTZ, pentylenetetrazol]
- effect on potassium currents at more negative potentials ([2]; more negative potentials): increased the potassium currents
- effect on potassium currents at more positive potentials ([2]; more positive potentials): decreased them

Molecule: C=C1C[C@@]2(O)[C@@H]3CC[C@@]4(C)[C@@H]5C=CC(=O)OC[C@]5(C(C)OC(C)=O)[C@@H](OC(C)=O)[C@@H](OC(C)=O)[C@@H]4[C@@]3(C)[C@H](OC(C)=O)[C@H](OC(C)=O)[C@@]2(C)C2(C(=O)OC)O[C@H]12 (some centres unmarked) [correolide]
- pressure threshold for eliciting peristaltic contractions (guinea-pig ileum): progressive and sustained reduction

Molecule: CCN[C@@H](C)Cc1cccc(C(F)(F)F)c1 [dexenfluramine]
- Kv channel activity (Kv channel [3]): decrease Kv channel activity

Molecule: CCNC(C)Cc1cccc(C(F)(F)F)c1 (centres unmarked) [fenfluramine]
- Kv channel activity (Kv channel [3]): decrease Kv channel activity

Molecule: CNCCC(Oc1ccc(C(F)(F)F)cc1)c1ccccc1 (centres unmarked) [fluoxetine]
- block of KV currents including Kv1.1 [4]: can occur at therapeutic levels

Molecule: ACTH4-10: adrenocorticotropin4-10, representing a core sequence of all melanocortins (MEHFRWG; Corticotropin; UniProt P01189 141-147, looked up, fragment)
- body fat mass [5]: reduced
- plasma leptin concentrations [5]: reduced
- weight [5]: reduced

Molecule: Kaliotoxin: a Kv1.1 and Kv1.3 channel blocker
- associative learning (rats): improves associative learning

Molecule: alpha-dendrotoxin
- peristaltic activity (guinea-pig ileum): increases the peristaltic activity
- pressure threshold for eliciting peristaltic contractions (guinea-pig ileum): immediate reduction

Molecule: dendrotoxin-K
- peristaltic activity (guinea-pig ileum): increases the peristaltic activity
- pressure threshold for eliciting peristaltic contractions (guinea-pig ileum): immediate reduction

Molecule: margatoxin (TIINVKCTSPKQCLPPCKAQFGQSAGAKCMNGKCKCYPH; UniProt P40755 1-39, looked up)
- peristaltic activity (guinea-pig ileum): increases the peristaltic activity
- pressure threshold for eliciting peristaltic contractions (guinea-pig ileum): immediate reduction

Molecule: recombinant leptin: recombinant leptin used to treat a child with a leptin deficiency mutation
- treatment outcome [6]: treated successfully
